This note sets out measurements from patent publication US20250376483A1, “PRODRUGS OF PAN-KRAS INHIBITORS” (Mirati Therapeutics, Inc., priority 2022, published 2025).

Molecules are shown by their SMILES.

A short description of data set [1]: Whole Blood Stability Assay (mouse whole blood). To be noted: CD-1 mouse blood, EDTA-K2, final conc. 2 μM, 37° C., 0-120 min; for half-life at 2 μM: male, fresh whole blood, read-out: Mouse Whole Blood Stability t1/2. Type of data set: in vitro ADME. On the procedure: Whole Blood Stability Assay
This Example illustrates that exemplary compounds of the present invention is cleavage in mouse whole blood.
(§1) Test Compounds and Stock Solutions: Stock Conc. 10 mM; Final Conc. 2 μM
(§2) Test Compound and Control Working Solution Preparation:
• Intermediate solution: 5 μL of compound stock solution (10 mM in dimethyl sulfoxide (DMSO)) were diluted with […] of DMSO (intermediate solution concentration: 1 mM, 100% DMSO) • Propantheline bromide (control) intermediate solution: 5 μL of propantheline stock solution (10 mM in ultra-pure water) were diluted with 45 μL of ultra-pure water (intermediate solution concentration: 1 mM) • Working solution 1: 20 μL of test compound intermediate solution (1 mM) were diluted with 180 μL of 45% ACN/H2O (working solution concentration: […], 40.5% ACN, 10% DMSO) • Working solution 2: 20 μL of control intermediate solution (1 mM) were diluted with 180 μL of 45% ACN/H2O (working solution concentration: 100 μM, 40.5% ACN, 10% DMSO) • Species/Matrix: CD-1 Mouse Blood • No. of Individuals: n>3 Male • Anticoagulant Used: EDTA-K2
• The fresh blood was collected on the day of experiment and pre-warmed in a water bath at 37° C. • Using an Apricot automation workstation, 98 μL/well of blank blood were added to all 96-well reaction plates (Blank, T0, T10, T30, T60 and T120). • An Apricot automation workstation was used to add 2 μL/well of working solution (100 μM) to all reaction plates except Blank (T0, T10, T30, T60 and T120). • All reaction plates containing mixtures of compound and blood were incubated at 37° C. in water bath. • The reaction plates were incubated at 37° C., and timer was started. • At the end of incubation, mixed 100 μL water with 100 μL spiked blood samples, then added 800 μL of stop solution (200 ng/mL tolbutamide and 200 ng/mL labetalol in ACN) to precipitate protein. Mixed thoroughly. • Each plate was sealed and shaken for 20 minutes. • After shaking, each plate was centrifuged at 4000 rpm and 4° C. for 20 minutes. • After centrifugation, an Apricot automation workstation was used to transfer 150 μL of supernatant from each reaction plate to its corresponding bioanalysis plate. • Each bioanalysis plate was submitted to LC-MS/MS analysis.
• The % remaining of test compound after incubation in blood was calculated using following equation:
(§3) [formula] • where PAR is the peak area ratio of analyte versus internal standard (IS) • The appointed incubation time points are TO (0 min), Tn (n=0, 10, 30, 60 and 120 min)

Data set [2] can be described thus: Plasma Stability Assay (human plasma). Type of data set: in vitro ADME. To be noted: both sexes; pooled human plasma, heparin, final conc. 2 μM, 37° C., 0-120 min; read-out: Human Plasma Stability t1/2. The method, then:
This Example illustrates that exemplary compounds of the present invention is cleavage in human plasma.
as §1, §2
• Test compound intermediate solution: 10 μL of compound stock solution (10 mM in dimethyl sulfoxide (DMSO)) were diluted with 90 μL of DMSO (intermediate solution concentration: 1 mM, 100% DMSO) • Control intermediate solution: 10 μL of control stock solution (10 mM in dimethyl sulfoxide (DMSO)) were diluted with 90 μL of DMSO (intermediate solution concentration: 1 mM, 100% DMSO) • Species/Matrix: Human Plasma • No. of Individuals: 3 Male & 3 Female • Anticoagulant Used: Heparin
• The pooled frozen plasma was thawed in a water bath at 37° C. prior to experiment. Plasma was centrifuged at 4000 rpm for 5 min and the clots were removed if any. • Using an Apricot automation workstation, 98 μL/well of blank plasma were added to all 96-well reaction plates. (Blank, T0, T10, T30, T60 and T120) • An Apricot automation workstation was used to add 2 μL/well of working solution (100 μM) to all reaction plates except Blank. (T0, T10, T30, T60 and T120) • All reaction plates containing mixtures of compound and plasma were incubated at 37° C. in water bath. • The reaction plates were incubated at 37° C., and timer was started. • At the end of incubation, added 500 μL of stop solution (200 ng/mL tolbutamide and 200 ng/mL labetalol in ACN) to precipitate protein. Mixed thoroughly. • Each plate was sealed and shaken for 20 minutes. • After shaking, each plate was centrifuged at 4000 rpm and 4° C. for 20 minutes • After centrifugation, an Apricot automation workstation was used to transfer 50 μL supernatant into 100 μL HPLC water. • Each bioanalysis plate was sealed and shaken for 10 minutes prior to LC-MS/MS analysis Data Analysis • The % remaining of test compound after incubation in blood was calculated using following equation:
as §3

As to `CCCCCCCCCC(=O)Oc1cc(-c2ncc3c(N4C[C@@H]5C[C@H](C4)[C@H](O)C5)nc(OC[C@@]45CCCN4C[C@H](F)C5)nc3c2F)c2c(CC)c(F)ccc2c1` [Example 25, 5-ethyl-6-fluoro-4-(8-fluoro-2-(((2R,7aS)-2-fluorotetrahydro-1H-pyrrolizin-7a(5H)-yl)methoxy)-4-((1R,5R,6R)-6-hydroxy-3-azabicyclo[3.2.1]octan-3-yl)pyrido[4,3-d]pyrimidin-7-yl)naphthalen-2-yl decanoate], the “Mouse Whole Blood Stability t1/2” value in data set [1] is given as 1 min. Moreover, the half-life at 2 μM in data set [2] amounted to 77 min.
Regarding `CCc1c(F)ccc2cc(OC(C)=O)cc(N3CCc4c(nc(OC[C@@]56CCCN5C[C@H](F)C6)nc4N4CCC[C@]5(C4)NC(=O)NC5=O)C3)c12` [Example 27, 4-(4-((R)-2,4-dioxo-1,3,7-triazaspiro[4.5]decan-7-yl)-2-(((2R,7aS)-2-fluorotetrahydro-1H-pyrrolizin-7a(5H)-yl)methoxy)-5,8-dihydropyrido[3,4-d]pyrimidin-7(6H)-yl)-5-ethyl-6-fluoronaphthalen-2-yl acetate], the half-life at 2 μM in data set [1] came out at 2 min; in data set [2], 12 min.
On the same counts, the results for `CCC(=O)Oc1cc(N2CCc3c(nc(OC[C@@]45CCCN4C[C@H](F)C5)nc3N3CCC[C@]4(C3)NC(=O)NC4=O)C2)c2c(CC)c(F)ccc2c1` [Example 29, 4-(4-((R)-2,4-dioxo-1,3,7-triazaspiro[4.5]decan-7-yl)-2-(((2R,7aS)-2-fluorotetrahydro-1H-pyrrolizin-7a(5H)-yl)methoxy)-5,8-dihydropyrido[3,4-d]pyrimidin-7(6H)-yl)-5-ethyl-6-fluoronaphthalen-2-yl propionate] are 2 min and 33 min.
Take `CCc1c(F)ccc2cc(OC(=O)OC)cc(N3CCc4c(nc(OC[C@@]56CCCN5C[C@H](F)C6)nc4N4CCC[C@]5(C4)NC(=O)NC5=O)C3)c12` [Example 30, 4-(4-((R)-2,4-dioxo-1,3,7-triazaspiro[4.5]decan-7-yl)-2-(((2R,7aS)-2-fluorotetrahydro-1H-pyrrolizin-7a(5H)-yl)methoxy)-5,8-dihydropyrido[3,4-d]pyrimidin-7(6H)-yl)-5-ethyl-6-fluoronaphthalen-2-yl methyl carbonate]: the “Mouse Whole Blood Stability t1/2” value in data set [1] was 1 min. Besides, the half-life at 2 μM in data set [2] came out at 27 min.
Turning to `CCc1c(F)ccc2cc(OC(=O)C3CC3)cc(N3CCc4c(nc(OC[C@@]56CCCN5C[C@H](F)C6)nc4N4CCC[C@]5(C4)NC(=O)NC5=O)C3)c12` [Example 32, 4-(4-((R)-2,4-dioxo-1,3,7-triazaspiro[4.5]decan-7-yl)-2-(((2R,7aS)-2-fluorotetrahydro-1H-pyrrolizin-7a(5H)-yl)methoxy)-5,8-dihydropyrido[3,4-d]pyrimidin-7(6H)-yl)-5-ethyl-6-fluoronaphthalen-2-yl cyclopropanecarboxylate], the half-life at 2 μM in data set [1] was found to be 2 min; in data set [2], 51 min.
On the same counts, the results for `CCCC(=O)Oc1cc(N2CCc3c(nc(OC[C@@]45CCCN4C[C@H](F)C5)nc3N3CCC[C@]4(C3)NC(=O)NC4=O)C2)c2c(CC)c(F)ccc2c1` [Example 33, 4-(4-((R)-2,4-dioxo-1,3,7-triazaspiro[4.5]decan-7-yl)-2-(((2R,7aS)-2-fluorotetrahydro-1H-pyrrolizin-7a(5H)-yl)methoxy)-5,8-dihydropyrido[3,4-d]pyrimidin-7(6H)-yl)-5-ethyl-6-fluoronaphthalen-2-yl butyrate] are below 5 min and 62 min.
Regarding `CCc1c(F)ccc2cc(OC(=O)C(C)C)cc(N3CCc4c(nc(OC[C@@]56CCCN5C[C@H](F)C6)nc4N4CCC[C@]5(C4)NC(=O)NC5=O)C3)c12` [Example 34, 4-(4-((R)-2,4-dioxo-1,3,7-triazaspiro[4.5]decan-7-yl)-2-(((2R,7aS)-2-fluorotetrahydro-1H-pyrrolizin-7a(5H)-yl)methoxy)-5,8-dihydropyrido[3,4-d]pyrimidin-7(6H)-yl)-5-ethyl-6-fluoronaphthalen-2-yl isobutyrate], in data set [1], the “Mouse Whole Blood Stability t1/2” value came out at 1 min. Besides, the half-life at 2 μM in data set [2] was 210 min.
As for `CCc1c(F)ccc2cc(OC(=O)N(C)C)cc(N3CCc4c(nc(OC[C@@]56CCCN5C[C@H](F)C6)nc4N4CCC[C@]5(C4)NC(=O)NC5=O)C3)c12` [Example 35, 4-(4-((R)-2,4-dioxo-1,3,7-triazaspiro[4.5]decan-7-yl)-2-(((2R,7aS)-2-fluorotetrahydro-1H-pyrrolizin-7a(5H)-yl)methoxy)-5,8-dihydropyrido[3,4-d]pyrimidin-7(6H)-yl)-5-ethyl-6-fluoronaphthalen-2-yl dimethylcarbamate], the half-life at 2 μM in data set [1] and in data set [2] was above 289 min in each case.
Consider `CCOC(=O)Oc1cc(N2CCc3c(nc(OC[C@@]45CCCN4C[C@H](F)C5)nc3N3CCC[C@]4(C3)NC(=O)NC4=O)C2)c2c(CC)c(F)ccc2c1` [Example 36, 4-(4-((R)-2,4-dioxo-1,3,7-triazaspiro[4.5]decan-7-yl)-2-(((2R,7aS)-2-fluorotetrahydro-1H-pyrrolizin-7a(5H)-yl)methoxy)-5,8-dihydropyrido[3,4-d]pyrimidin-7(6H)-yl)-5-ethyl-6-fluoronaphthalen-2-yl ethyl carbonate], for which the figures for the half-life at 2 μM in data set [1] and in data set [2] were 3 min and 33 min, respectively.
As for `CCc1c(F)ccc2cc(OC(=O)N3CCC3)cc(N3CCc4c(nc(OC[C@@]56CCCN5C[C@H](F)C6)nc4N4CCC[C@]5(C4)NC(=O)NC5=O)C3)c12` [Example 37, 4-(4-((R)-2,4-dioxo-1,3,7-triazaspiro[4.5]decan-7-yl)-2-(((2R,7aS)-2-fluorotetrahydro-1H-pyrrolizin-7a(5H)-yl)methoxy)-5,8-dihydropyrido[3,4-d]pyrimidin-7(6H)-yl)-5-ethyl-6-fluoronaphthalen-2-yl azetidine-1-carboxylate], the values for the half-life at 2 μM in data set [1] and in data set [2] were 189 min and above 289 min, respectively.
Take `CCc1c(F)ccc2cc(OC(=O)C(C)(C)C)cc(N3CCc4c(nc(OC[C@@]56CCCN5C[C@H](F)C6)nc4N4CCC[C@]5(C4)NC(=O)NC5=O)C3)c12` [Example 39, 4-(4-((R)-2,4-dioxo-1,3,7-triazaspiro[4.5]decan-7-yl)-2-(((2R,7aS)-2-fluorotetrahydro-1H-pyrrolizin-7a(5H)-yl)methoxy)-5,8-dihydropyrido[3,4-d]pyrimidin-7(6H)-yl)-5-ethyl-6-fluoronaphthalen-2-yl pivalate]: the “Mouse Whole Blood Stability t1/2” value in data set [1] amounted to 1 min. In addition, the half-life at 2 μM in data set [2] was above 289 min.
As for `CCc1c(F)ccc2cc(OC(=O)OC(C)C)cc(N3CCc4c(nc(OC[C@@]56CCCN5C[C@H](F)C6)nc4N4CCC[C@]5(C4)NC(=O)NC5=O)C3)c12` [Example 40, 4-(4-((R)-2,4-dioxo-1,3,7-triazaspiro[4.5]decan-7-yl)-2-(((2R,7aS)-2-fluorotetrahydro-1H-pyrrolizin-7a(5H)-yl)methoxy)-5,8-dihydropyrido[3,4-d]pyrimidin-7(6H)-yl)-5-ethyl-6-fluoronaphthalen-2-yl isopropyl carbonate], the figures for the half-life at 2 μM in data set [1] and in data set [2] were 2 min and 95 min, respectively.
